The record followed here is USRE47302E1 (ONYX THERAPEUTICS INC., priority 2013, dated 2019).

The target in data set [1] is T1, immunoproteasome subunit LMP7 (Homo sapiens, UniProt P28062).
T1 construct: Lysate from the human acute lymphoblastic leukemia cell line, MOLT-4; endogenous in cells; host or cells: MOLT-4
In words: Proteasome active-site ELISA (ProCISE), LMP7, MOLT-4 lysate. Format: biochemical. As to conditions: MOLT4 lysate, 1 h continuous treatment, 25° C. The procedure, abridged: (§1)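 MOLT-4 cell lysate treated 1 h at 25 °C with compound; probe-bound subunits denatured, pulled down on streptavidin beads and detected with subunit-specific antibodies plus HRP chemiluminescence.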
For orientation: ELISA stands for enzyme-linked immunosorbent assay.

Another data set is described as follows: Solubility pH 7. To be noted: pH 7, aqueous buffer.
Data set [2] deals with human 20S immunoproteasome (i20S) (Homo sapiens, UniProt P28062). In words: 20S proteasome assay, chymotrypsin-like activity (succinyl-Leu-Leu-Val-Tyr-AMC), i20S. Format: biochemical. To be noted: LLVY substrate, 1 h continuous. From the text: (§2) Assay buffer consisted of TE buffer [20 mmol/L Tris (pH 8.0), 0.5 mmol/L EDTA] with (20S) or without (cell lysate) 0.03% SDS. Reactions were initiated by enzyme or lysate addition and monitored for AMC product formation at 27jC with a plate-based spectofluorometer (Tecan).

Data set [3] concerns the target human constitutive 20S proteasome (c20S) (Homo sapiens, UniProt P28074). Description: 20S proteasome assay, chymotrypsin-like activity (succinyl-Leu-Leu-Val-Tyr-AMC), c20S. It counts as biochemical. To be noted: LLVY substrate, 1 h continuous.
From the text: as §2

Data set [4] addresses T2, proteasome subunit β5 (beta5) (Homo sapiens, UniProt P28074).
T2 construct: Lysate from the human acute lymphoblastic leukemia cell line, MOLT-4; endogenous in cells; host or cells: MOLT-4
Description: Proteasome active-site ELISA (ProCISE), beta5, MOLT-4 lysate. Format: biochemical. To be noted: MOLT4 lysate, human, 1 h continuous treatment, 25° C. The procedure, abridged: as §1

Each structure is given as a SMILES string. Converted amounts (≈) assume the structure as drawn.

A word on the IC50: it is the point on the concentration scale where inhibition reaches its midpoint. A higher IC50 goes with a need for much substance. For orientation: solubility means the concentration that dissolves in the medium under given conditions. Read a high solubility as a readily soluble substance. `C[C@H](NC(=O)CN1CCOCC1)C(=O)N[C@@H](Cc1coc2ccccc12)C(=O)N[C@@H](CC1CCCC1)C(=O)[C@@]1(C)CO1` [Compound C-1015, (S)-3-(benzofuran-3-yl)-N-((S)-3-cyclopentyl-1-((R)-2-methyloxiran-2-yl)-1-oxopropan-2-yl)-2-((S)-2-(2-morpholinoacetamido)propanamido)propanamide]: the IC50 in data set [1] was found to be 498 nM; in data set [2], 167 nM; in data set [3] it was 506 nM; in data set [4], 1140 nM. This compound also displayed a solubility in the data set “Solubility pH 7” of 212 µg/mL (≈ 364 µM).

Turning to `COc1ccc(C[C@H](NC(=O)[C@H](C)NC(=O)CN2CCOCC2)C(=O)N[C@@H](CC2CCCC2)C(=O)[C@@]2(C)CO2)cc1O` [Compound C-1018, (S)-N-((S)-3-cyclopentyl-1-((R)-2-methyloxiran-2-yl)-1-oxopropan-2-yl)-3-(3-hydroxy-4-methoxyphenyl)-2-((S)-2-(2-morpholinoacetamido)propanamido)propanamide], the half-maximal inhibitory concentration (IC50) was determined as 184 nM in data set [1], 170 nM in data set [2], 656 nM in data set [3] and 1730 nM in data set [4]. This compound also gave a solubility in “Solubility pH 7” of 5840 µg/mL (≈ 9910 µM).

Take `COc1ccc(C[C@H](NC(=O)[C@@H](C)NC(=O)C2CCCC2)C(=O)N[C@@H](CC2CCCC2)C(=O)[C@@]2(C)CO2)cc1` [Compound C-1021, N-((R)-1-(((S)-1-(((S)-3-cyclopentyl-1-((R)-2-methyloxiran-2-yl)-1-oxopropan-2-yl)amino)-3-(4-methoxyphenyl)-1-oxopropan-2-yl)amino)-1-oxopropan-2-yl)cyclopentanecarboxamide]: the half-inhibitory concentration (IC50) is 113 nM in data set [1], 144 nM in data set [2], 3540 nM in data set [3] and 1900 nM in data set [4]. In the data set “Solubility pH 7”, this compound gave a solubility of 19.3 µg/mL (≈ 35.6 µM).

For `COc1ccc([C@@H](O)[C@H](NC(=O)[C@H](C)NC(=O)CN2CCOCC2)C(=O)N[C@@H](CC2CCCC2)C(=O)[C@@]2(C)CO2)cc1` [Compound C-1022, (2S,3R)-N-((S)-3-Cyclopentyl-1-((R)-2-methyloxiran-2-yl)-1-oxopropan-2-yl)-3-hydroxy-3-(4-methoxyphenyl)-2-((S)-2-(2-morpholinoacetamido)propanamido)propanamide], the half-inhibitory concentration (IC50) in data set [1] stood at 85.1 nM; in data set [2], 115 nM; in data set [3] it was 729 nM; in data set [4] it was 1110 nM. The compound also displayed a solubility in “Solubility pH 7” of 4050 µg/mL (≈ 6880 µM).

With `C[C@H](NC(=O)CN1CCOCC1)C(=O)N[C@@H](Cc1ccc(S(C)(=O)=O)cc1)C(=O)N[C@@H](CC1CCCC1)C(=O)[C@@]1(C)CO1` [Compound C-1027, (S)-N-((S)-3-cyclopentyl-1-((R)-2-methyloxiran-2-yl)-1-oxopropan-2-yl)-3-(4-(methylsulfonyl)phenyl)-2-((S)-2-(2-morpholinoacetamido)propanamido)propanamide], the IC50 in data set [1] turned out to be 165 nM; in data set [2], 108 nM; in data set [3], 775 nM; in data set [4] it was 1050 nM. In addition, the concentration in solution in the data set “Solubility pH 7” (solubility) was 5750 µg/mL (≈ 9260 µM).

As to `COc1ccc(C[C@H](NC(=O)[C@@H](C)NC(=O)C2CCOCC2)C(=O)N[C@@H](CC2CCCC2)C(=O)[C@@]2(C)CO2)cc1` [Compound C-1028, N-((R)-1-(((S)-1-(((S)-3-cyclopentyl-1-((R)-2-methyloxiran-2-yl)-1-oxopropan-2-yl)amino)-3-(4-methoxyphenyl)-1-oxopropan-2-yl)amino)-1-oxopropan-2-yl)tetrahydro-2H-pyran-4-carboxamide], the IC50 in data set [1] turned out to be 52.6 nM; in data set [2] it was 53.8 nM; in data set [3], 1010 nM; in data set [4], 807 nM. The compound also showed a solubility in the data set “Solubility pH 7” of 215 µg/mL (≈ 385 µM).

For `COc1ccc(C[C@H](NC(=O)[C@@H](C)NC(=O)C2CC(=O)C2)C(=O)N[C@@H](CC2CCCC2)C(=O)[C@@]2(C)CO2)cc1` [Compound C-1029, N-((R)-1-(((S)-1-(((S)-3-cyclopentyl-1-((R)-2-methyloxiran-2-yl)-1-oxopropan-2-yl)amino)-3-(4-methoxyphenyl)-1-oxopropan-2-yl)amino)-1-oxopropan-2-yl)-3-oxocyclobutanecarboxamide], the IC50 in data set [1] was found to be 303 nM; in data set [2], 214 nM; in data set [3], 4110 nM; in data set [4], 3790 nM. For the same compound, the solubility in “Solubility pH 7” amounted to 822 µg/mL (≈ 1520 µM).

For the compound `COc1ccc(C[C@H](NC(=O)[C@H](C)NC(=O)CN2CCOCC2)C(=O)N[C@@H](CC2CCCC2)C(=O)[C@H]2CO2)cc1` [Compound C-1030, (S)-N-((S)-3-cyclopentyl-1-((R)-oxiran-2-yl)-1-oxopropan-2-yl)-3-(4-methoxyphenyl)-2-((S)-2-(2-morpholinoacetamido)propanamido)propanamide], the IC50 in data set [1] was determined as 11.2 nM; in data set [2] it was 7.93 nM; in data set [3] it was 201 nM; in data set [4], 497 nM. The same compound showed a solubility in “Solubility pH 7” of 220 µg/mL (≈ 394 µM).

For `COc1ccc(C[C@H](NC(=O)[C@@H](C)NC(=O)[C@H]2C[C@H](O)C2)C(=O)N[C@@H](CC2CCCC2)C(=O)[C@@]2(C)CO2)cc1` [Compound C-1041, (1r,3R)-N-((R)-1-(((S)-1-(((S)-3-cyclopentyl-1-((R)-2-methyloxiran-2-yl)-1-oxopropan-2-yl)amino)-3-(4-methoxyphenyl)-1-oxopropan-2-yl)amino)-1-oxopropan-2-yl)-3-hydroxycyclobutanecarboxamide], the IC50 in data set [1] is 440 nM; in data set [2] it was 232 nM; in data set [3], 7030 nM; in data set [4], 12500 nM. For the same compound, the solubility in “Solubility pH 7” turned out to be 1830 µg/mL (≈ 3360 µM).

Regarding `COc1ccc(C[C@H](NC(=O)[C@H](C)NC(=O)CN2CCC(F)(F)CC2)C(=O)N[C@@H](CC2CCCC2)C(=O)[C@@]2(C)CO2)cc1` [Compound C-1046, (S)-N-((S)-3-cyclopentyl-1-((R)-2-methyloxiran-2-yl)-1-oxopropan-2-yl)-2-((S)-2-(2-(4,4-difluoropiperidin-1-yl)acetamido)propanamido)-3-(4-methoxyphenyl)propanamide], the 50% inhibitory concentration (IC50) in data set [1] is 37.9 nM; in data set [2], 63.5 nM; in data set [3], 361 nM; in data set [4], 198 nM. In the data set “Solubility pH 7”, this compound showed a solubility of 152 µg/mL (≈ 250 µM).

Regarding `C[C@H](NC(=O)CN1CCOCC1)C(=O)N[C@@H](Cc1ccc(C(N)=O)cc1)C(=O)N[C@@H](CC1CCCC1)C(=O)[C@@]1(C)CO1` [Compound C-1049, 4-((S)-3-(((S)-3-cyclopentyl-1-((R)-2-methyloxiran-2-yl)-1-oxopropan-2-yl)amino)-2-((S)-2-(2-morpholinoacetamido)propanamido)-3-oxopropyl)benzamide], the IC50 is 153 nM in data set [1], 66.8 nM in data set [2], 305 nM in data set [3] and 796 nM in data set [4]. Besides, the concentration in solution in “Solubility pH 7” (solubility) was 3510 µg/mL (≈ 5990 µM).

As for `C[C@H](NC(=O)CN1CCOCC1)C(=O)N[C@@H](Cc1ccc(C#N)cc1)C(=O)N[C@@H](CC1CCCC1)C(=O)[C@@]1(C)CO1` [Compound C-1050, (S)-3-(4-cyanophenyl)-N-((S)-3-cyclopentyl-1-((R)-2-methyloxiran-2-yl)-1-oxopropan-2-yl)-2-((S)-2-(2-morpholinoacetamido)propanamido)propanamide], the IC50 in data set [1] was 116 nM; in data set [2], 53.5 nM; in data set [3] it was 277 nM; in data set [4] it was 765 nM. This compound yielded a solubility in the data set “Solubility pH 7” of 1280 µg/mL (≈ 2250 µM).
